Format in all cases: cell-based, human
In one assay the test system is SREBP-2. Nature of the assay: Western blot, SREBP-2 protein level in HepG2 cells. The note with it: HepG2, 50 µM, 24 h, mean ± SD. As for the experimental part:
(§1) The HepG2 cell line was bought from ATCC (HB-8065, ATCC from LGC Standards, Milan, Italy) and was cultured in DMEM high glucose with stable L-glutamine, supplemented with 10% FBS, 100 U/mL penicillin, 100 µg/mL streptomycin (complete growth medium) with incubation at 37 °C under 5% CO2 atmosphere.
(§2) Immunoblotting experiments were performed using optimized protocol. A total of 1.5 × 10^5 HepG2 cells/well (24-well plate) were treated with 50 μM of P5 and P5-met for 24 h. After each treatment, the supernatants were collected and stored at −20°C; cells were scraped in 40 µL ice-cold lysis buffer (RIPA buffer + inhibitor cocktail + 1:100 PMSF + 1:100 Na-orthovanadate + 1:1000 β-mercaptoethanol) and transferred in ice-cold microcentrifuge tubes. […] Total proteins were quantified by the Bradford’s method and 50 μg of total proteins loaded on a pre-cast 7.5% Sodium Dodecyl Sulfate-Polyacrylamide (SDS-PAGE) gel at 130 V for 45 min. […] Target proteins, on milk or BSA blocked membrane, were detected by primary antibodies as follows: anti-SREBP-2, anti-LDLR, anti-HMGCoAR, anti-PCSK9, anti HNF1-α and anti-β-actin. Secondary antibodies conjugated with HRP and a chemiluminescent reagent were used to visualize target proteins and their signal was quantified using the Image Lab Software (Biorad, Hercules, CA, USA). […]

In another assay the test system is LDLR. The experiment in a line: Western blot, LDLR protein level in HepG2 cells. The note with it: HepG2, 50 µM, 24 h, mean ± SD. On the procedure: as §1, §2
The next assay relates to HMGCoAR. The experiment in a line: Western blot, HMGCoAR protein level in HepG2 cells. As to conditions: HepG2, 50 µM, 24 h, mean ± SD. As for the experimental part:
as §1, §2

Assay [1] relates to LDLR on HepG2 cell surface. The experiment in a line: In-cell Western (ICW) assay, LDLR localized on HepG2 cell surface. On the procedure:
For the experiments, a total of 3 × 10^4 HepG2 cells/well were seeded in 96-well plates. The following day, cells were washed with PBS and then starved overnight (O/N) in DMEM without FBS and antibiotics. After starvation, HepG2 cells were treated with 4.0 μg/mL PCSK9-WT and 4.0 μg/mL PCSK9 + peptides P5 and/or P5-met (50 µM) and vehicle (H2O) for 2 h at 37 °C under 5% CO2 atmosphere. Subsequently, they were fixed in 4% paraformaldehyde for 20 min at room temperature (RT). Cells were washed 5 times with 100 µL of PBS/well (each wash was for 5 min at RT) and the endogenous peroxides activity quenched adding 3% H2O2 for 20 min at RT. Non-specific sites were blocked with 100 µL/well of 5% bovine serum albumin (BSA, Sigma) in PBS for 1.5 h at RT. LDLR primary antibody solution (1:3000 in 5% BSA in PBS, 25 µL/well) was incubated O/N at +4 °C. Subsequently, the primary antibody solution was discarded and each sample was washed 5 times with 100 µL/well of PBS (each wash was for 5 min at RT). Goat anti-rabbit Ig-HRP secondary antibody solution (Santa Cruz) (1:6000 in 5% BSA in PBS, 50 µL/well), was added and incubated 1 h at RT. The secondary antibody solution was washed 5 times with 100 µL/well of PBS (each wash for 5 min at RT). Freshly prepared TMB substrate (Pierce, 100 µL/well) was added and the plate was incubated at RT until desired color was developed. The reaction was stopped with 2 M H2SO4 and then the absorbance at 450 nm was measured using the microplate reader Synergy H1 (Winooski, VT, USA). After the read, cells were stained by adding 1× Janus Green stain, incubating for 5 min at RT. The dye was removed and the sample washed 5 times with water. Afterward 100 µL 0.5 M HCl for well were added and incubated for 10 min. After 10 seconds shaking, the OD at 595 nm was measured using the microplate reader Synergy H1 (Winooski, VT, USA).

The test system of another assay is HepG2 cells. Nature of the assay: Fluorescent LDL uptake by HepG2 cells. As to conditions: mean ± SD. As for the experimental part:
HepG2 cells (3 × 10^4/well) were seeded in 96-well plates and kept in complete growth medium for 2 days before treatment. The third day, cells were washed with PBS and then starved overnight (O/N) in DMEM without FBS and antibiotics. After starvation, they were treated with 4.0 μg/mL PCSK9 and 4.0 μg/mL PCSK9 + P5 and P5-met peptides (50.0 µM), and vehicle (H2O) for 2 h with at 37 °C under 5% CO2 atmosphere. At the end of the treatment, the culture medium was replaced with 50 μL/well LDL-DyLight™ 550 working solution (Cayman Chemical Company, Ann Arbor, MI, USA) prepared in DMEM without FBS and antibiotics. The cells were additionally incubated for 2 h at 37 °C and then the culture medium was aspirated and replaced with PBS (100 μL/well). The degree of LDL uptake was measured using the Synergy H1 fluorescent plate reader (Winooski, VT, USA) (excitation and emission wavelengths 540 and 570 nm, respectively). Fluorescent LDL-uptake was finally assessed following optimized protocol.

On to H-LPKHSDAD-OH [Peptide P5-met], for which the “SREBP-2 protein level versus the control” value in the assay on SREBP-2 was found to be 130.4 ± 16.4%. For the same substance, the “LDLR protein level versus the control” value in the assay with LDLR came out at 150.4 ± 29.2%. Besides, the “HMGCoAR protein level versus the control” value with HMGCoAR came out at 117.9 ± 12.1%. Moreover, the “LDLR localized on the cellular membranes of HepG2 cells versus the control” value in assay [1] (HepG2, 50 µM, without added PCSK9, mean ± SD) is on record as 145.2 ±15.2%. Moreover, the “LDLR level on HepG2 cell surface restored, co-incubation with PCSK9” value in assay [1] (peptide 50 µM + PCSK9 4 µg/mL, 2 h, % of control, mean ± SD) is 90.1 ± 0.1%. The “Ability of HepG2 cells to absorb extracellular LDL versus the control” value in the assay on HepG2 cells (HepG2, 50 µM, fluorescent LDL-DyLight 550, without added PCSK9) is listed as 181.2 ± 40.1%. Moreover, in the assay on HepG2 cells (peptide 50 µM + PCSK9 4 µg/mL, 2 h, % of untreated cells), the “LDL uptake by HepG2 cells restored, co-incubation with PCSK9” value came out at 104.1 ± 8.5%.

These data come from publication PMC8000724, “Trans-Epithelial Transport, Metabolism, and Biological Activity Assessment of the Multi-Target Lupin Peptide [sequence] (P5) and Its Metabolite [sequence] (P5-Met)” (Nutrients, 2021).
